Consider three compounds from patent publication US20160106743A1, “TOPOISOMERASE II POISONS AND METHODS OF MAKING AND USING SAME” (THE UNIVERSITY OF ROCHESTER, priority 2014, published 2016).

“Also recorded” adds a separate entry of the source.

Data set [1] has as its target T1, purified yeast Top2 (Saccharomyces cerevisiae, UniProt P06786).
T1 sequence (P06786 1-1428): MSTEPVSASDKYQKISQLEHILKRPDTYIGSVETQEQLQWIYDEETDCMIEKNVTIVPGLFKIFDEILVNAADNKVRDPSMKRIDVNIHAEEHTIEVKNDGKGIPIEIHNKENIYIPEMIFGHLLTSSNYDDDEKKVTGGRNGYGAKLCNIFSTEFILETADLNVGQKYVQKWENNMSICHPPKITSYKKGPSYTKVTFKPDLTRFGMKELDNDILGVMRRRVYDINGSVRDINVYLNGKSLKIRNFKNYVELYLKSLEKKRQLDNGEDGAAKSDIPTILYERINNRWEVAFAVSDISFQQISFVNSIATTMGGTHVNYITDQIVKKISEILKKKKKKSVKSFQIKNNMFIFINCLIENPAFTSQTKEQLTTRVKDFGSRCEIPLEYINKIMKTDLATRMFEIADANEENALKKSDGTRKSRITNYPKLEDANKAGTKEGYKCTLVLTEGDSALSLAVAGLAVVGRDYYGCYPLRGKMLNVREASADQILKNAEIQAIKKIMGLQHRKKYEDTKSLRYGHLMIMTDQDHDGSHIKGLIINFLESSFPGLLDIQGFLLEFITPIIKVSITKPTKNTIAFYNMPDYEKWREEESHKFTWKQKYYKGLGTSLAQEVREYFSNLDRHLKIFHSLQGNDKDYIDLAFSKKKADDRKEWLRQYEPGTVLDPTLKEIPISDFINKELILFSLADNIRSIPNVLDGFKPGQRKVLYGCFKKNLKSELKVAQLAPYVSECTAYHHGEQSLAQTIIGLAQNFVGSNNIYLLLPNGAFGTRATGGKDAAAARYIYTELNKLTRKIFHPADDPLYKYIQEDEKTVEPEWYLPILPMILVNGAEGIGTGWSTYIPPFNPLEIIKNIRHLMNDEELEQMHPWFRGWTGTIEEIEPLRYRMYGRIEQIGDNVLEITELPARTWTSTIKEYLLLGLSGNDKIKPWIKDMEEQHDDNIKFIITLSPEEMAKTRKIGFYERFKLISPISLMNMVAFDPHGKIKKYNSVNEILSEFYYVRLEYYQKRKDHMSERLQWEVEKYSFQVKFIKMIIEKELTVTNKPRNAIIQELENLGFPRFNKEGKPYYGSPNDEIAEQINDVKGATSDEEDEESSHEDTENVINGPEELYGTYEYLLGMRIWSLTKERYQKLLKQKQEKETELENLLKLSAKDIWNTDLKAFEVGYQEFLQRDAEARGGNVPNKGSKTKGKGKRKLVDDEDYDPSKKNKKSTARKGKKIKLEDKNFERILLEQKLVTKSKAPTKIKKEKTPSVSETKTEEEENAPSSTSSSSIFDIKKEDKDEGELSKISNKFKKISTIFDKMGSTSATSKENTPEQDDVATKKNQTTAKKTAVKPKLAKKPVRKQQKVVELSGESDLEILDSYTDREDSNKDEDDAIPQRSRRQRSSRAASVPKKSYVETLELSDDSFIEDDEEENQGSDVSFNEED
Briefly: Plasmid DNA (pUC18) cleavage by purified yeast Top2 (double strand breaks, linear form). It is filed as biochemical. Particulars: 10 μM etoposide or 1, 10 or 100 μM Compound 1, 150 ng purified yeast Top2, FIG. 5. The method, then: Supercoiled (sc) plasmid DNA (pUC18) was exposed to 10 μM etoposide or 1, 10 or 100 μM Compound 1 in the presence and absence of 150 ng of purified yeast Top2 as described (Nitiss et al. (2012) Curr Protoc. Pharmacol. Chapter 3: Unit 3.3) (FIG. 5). TOP2 poisons induce Top2cc adducts containing double strand breaks. Double strand DNA breaks convert supercoiled (sc) pUC18 to a linear (lin) form.

Data set [2] has as its system puc118-based plasmid DNA. Briefly: Topoisomerase I (Top1) DNA unwinding assay for intercalation. Particulars: 15 min at 25° C., then 1 h with added Top1, FIG. 2.
Text: Samples were resolved by electrophoresis through 1% agarose 1×TAE gel and species *, **, and *** quantitated by densitometry (FIG. 2). Top1 alone (Lane 2) converts the DNA to a relaxed form (**) and some residual intermediate relaxed species (***).
Data set [3] deals with Saccharomyces cerevisiae strain BY4741 overexpressing yeast TOP3. Briefly: Yeast dilution growth on agar media, cells overexpressing TOP3. It is filed as cell-based. Particulars: Compound 1 10 μM in 0.1% DMSO, growth recorded after 48 h, FIG. 3. Here is the method:
(§1) Three-fold dilutions of Saccharomyces cerevisiae strain BY4741 overexpressing yeast TOP1, TOP2, or TOP3 from plasmid vectors were plated on agar media containing either 0.1% DMSO or Compound 1 (10 μM) in 0.1% DMSO (FIG. 3). Growth was recorded after 48 h. TOP1, TOP2, and TOP3 overexpressing cells grew at approximately the same rate as cells carrying an empty vector (top panel). […] However, Compound 1 was toxic to cells overexpressing TOP2. This phenomenon is characteristic of TOP2 poisons that stabilize toxic Top2cc adducts.

Data set [4] has as its system yeast cells expressing native levels of Top2. Briefly: Yeast culture growth rate, native levels of TOP2 (empty expression vector). It is filed as cell-based. Particulars: FIG. 4. The source says:
(§2) Yeast cultures overexpressing native TOP2 (TOP2) or an empty expression vector (empty) were exposed to increasing concentrations of Compound 1 (FIG. 4). […] This is an unusual property for a TOP2 poison, most or all of which are lethal at high concentrations.

Data set [5] concerns Saccharomyces cerevisiae strain BY4741 overexpressing yeast TOP2. The data set can be described thus: Yeast dilution growth on agar media, cells overexpressing TOP2. The data set is classed as cell-based. Particulars: Compound 1 10 μM in 0.1% DMSO, growth recorded after 48 h, FIG. 3. The method, then:
as §1

Data set [6] has as its system Human HT1080 fibrosarcoma cells. The data set can be described thus: HT1080 cell viability, alone and combined with doxorubicin, vinblastine or etoposide. It is filed as cell-based. Further details: viability of HT1080 cells, compound alone: dose or concentration left out as unconfirmed. The method, then: Human HT1080 fibrosarcoma cells were exposed for 48 hrs to DMSO (vehicle control), 0.5 μM doxorubicin, 0.5 nM vinblastine, and/or Compound 1 at the indicated concentrations (FIGS. 6A-6C, respectively). Viable cells remaining on the plates were quantified after 48 hrs. […] (FIG. 6B) Compound 1 enhances doxorubicin toxicity at concentrations as low as 2.5 μM. 10 μM Compound 1 enhances doxorubicin cytotoxicity several fold. […] The vinblastine results are inconsistent with Compound 1 acting by inhibition of multidrug resistance pumps, which, when inhibited, increase the toxicity of multiple cytotoxic drugs including vinblastine. […] Average values and standard deviation of the means are plotted. P-values determined by student t-test are shown for doxorubicin enhancement (B). DMSO (A) and doxorubicin (B) data were based on the average of 6 biological replicates. Vinblastine data (C) was based on three biological replicates.

Data set [7] concerns Saccharomyces cerevisiae strain BY4741 overexpressing yeast TOP1. The data set can be described thus: Yeast dilution growth on agar media, cells overexpressing TOP1. Particulars: Compound 1 10 μM in 0.1% DMSO, growth recorded after 48 h, FIG. 3. The data set is classed as cell-based. Here is the method: as §1
Data set [8] has as its target T2, Human Top2-α (Homo sapiens, UniProt P11388).
T2 construct: purchased Topogen, Inc; Port Orange Fla
The data set can be described thus: Human Top2-α decatenation of kinetoplastid DNA (gel electrophoresis, densitometry). Particulars: increasing concentrations of Compound 1, 37° C. for 15 min, FIG. 1. The data set is classed as biochemical. Here is the method: Human Top2-α decatenation of kinetoplastid DNA (kDNA) was visualized by gel electrophoresis. Human Top2-α (Topogen, Inc; Port Orange Fla.) was added to 0.2 μg of kDNA in the presence of 1% DMSO (vehicle control) without or with increasing concentrations of Compound 1. Reactions were incubated at 37° C. for 15 min and terminated by addition of an SDS buffer. Samples were resolved by 1% agarose 1×TAE gel electrophoresis and stained with ethidium bromide. Decatenated versus intact kDNA species were quantified by densitometry (FIG. 1).

Data set [9] has as its system Noncancer MJT cells (primary foreskin fibroblasts). Briefly: MJT noncancer cell viability with and without doxorubicin. The data set is classed as cell-based, human.
The test system of data set [10] is Saccharomyces cerevisiae strain BY4741 carrying an empty vector. Briefly: Yeast dilution growth on agar media, cells carrying an empty vector. The data set is classed as cell-based. Particulars: Compound 1 10 μM in 0.1% DMSO, growth recorded after 48 h, FIG. 3. Here is the method:
as §1

Data set [11] deals with yeast cells overexpressing TOP2. Briefly: Yeast culture growth rate, TOP2 overexpressed from a plasmid vector. The data set is classed as cell-based. Particulars: increasing concentrations of Compound 1, FIG. 4.
Text: as §2

T2 sequence (P11388 whole entry): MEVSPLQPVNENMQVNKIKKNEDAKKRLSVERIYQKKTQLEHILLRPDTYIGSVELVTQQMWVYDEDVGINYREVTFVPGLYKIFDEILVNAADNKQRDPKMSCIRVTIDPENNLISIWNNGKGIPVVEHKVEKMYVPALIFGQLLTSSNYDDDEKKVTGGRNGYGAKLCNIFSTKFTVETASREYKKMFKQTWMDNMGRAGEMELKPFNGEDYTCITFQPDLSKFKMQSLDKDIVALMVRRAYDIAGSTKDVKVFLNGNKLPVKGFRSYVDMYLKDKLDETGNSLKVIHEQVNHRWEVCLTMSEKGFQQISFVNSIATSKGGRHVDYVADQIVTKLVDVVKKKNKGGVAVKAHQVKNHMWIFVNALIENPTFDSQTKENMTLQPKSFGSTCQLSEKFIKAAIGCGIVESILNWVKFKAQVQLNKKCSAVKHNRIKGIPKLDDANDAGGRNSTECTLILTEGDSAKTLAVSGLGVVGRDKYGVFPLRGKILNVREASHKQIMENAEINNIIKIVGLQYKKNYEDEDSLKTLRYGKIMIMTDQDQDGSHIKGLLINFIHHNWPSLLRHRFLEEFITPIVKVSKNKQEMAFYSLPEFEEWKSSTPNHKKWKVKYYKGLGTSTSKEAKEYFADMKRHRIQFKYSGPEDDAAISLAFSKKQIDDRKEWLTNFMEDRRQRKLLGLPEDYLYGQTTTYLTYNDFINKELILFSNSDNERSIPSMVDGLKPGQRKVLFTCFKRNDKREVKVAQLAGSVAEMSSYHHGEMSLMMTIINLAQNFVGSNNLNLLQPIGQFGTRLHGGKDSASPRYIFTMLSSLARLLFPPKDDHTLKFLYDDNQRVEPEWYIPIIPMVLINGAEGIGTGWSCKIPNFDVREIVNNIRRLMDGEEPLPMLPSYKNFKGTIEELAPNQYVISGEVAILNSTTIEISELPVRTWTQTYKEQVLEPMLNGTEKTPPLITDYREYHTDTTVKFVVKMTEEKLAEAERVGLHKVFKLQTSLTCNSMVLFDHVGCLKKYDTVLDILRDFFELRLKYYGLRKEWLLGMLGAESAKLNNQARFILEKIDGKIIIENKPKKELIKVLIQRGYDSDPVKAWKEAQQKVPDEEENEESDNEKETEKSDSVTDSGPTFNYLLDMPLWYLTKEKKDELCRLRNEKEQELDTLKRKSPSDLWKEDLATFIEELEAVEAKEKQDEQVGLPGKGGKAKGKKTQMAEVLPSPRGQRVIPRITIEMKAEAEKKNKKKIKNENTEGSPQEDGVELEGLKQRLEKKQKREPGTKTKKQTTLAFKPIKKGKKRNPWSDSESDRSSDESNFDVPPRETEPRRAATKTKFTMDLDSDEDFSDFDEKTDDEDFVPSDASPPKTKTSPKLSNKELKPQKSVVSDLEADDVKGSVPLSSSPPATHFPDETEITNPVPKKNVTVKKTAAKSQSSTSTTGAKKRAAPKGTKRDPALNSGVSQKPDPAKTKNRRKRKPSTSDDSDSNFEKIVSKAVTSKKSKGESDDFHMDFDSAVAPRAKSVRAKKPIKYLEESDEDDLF

Consider `COc1cc([C@@H]2c3cc4c(cc3[C@@H](O[C@@H]3O[C@@H]5CO[C@@H](C)O[C@H]5[C@H](O)[C@H]3O)[C@H]3COC(=O)[C@H]23)OCO4)cc(OC)c1O` [etoposide, reference compound], for which the “formation of the linear form of pUC18 (stable double strand breaks, Top2cc adducts)” value in data set [1] is listed as “induced yeast Top2 to form the linear form of pUC18”. In addition, the “unwinding of plasmid DNA in presence of Top1 (intercalation)” value (“unwinding of plasmid DNA” for short) in [2] was “do not unwind the DNA”.
Take `c1ccc2nc3c(nc2c1)[nH]c1ccccc13` [Compound 1, 6H-indolo[2,3-b]quinoxaline]: in data set [3], the “growth of cells overexpressing TOP3 on agar” value is given as “no effect on the growth”. Also, the “growth in cells expressing native levels of Top2 at high concentrations” value in data set [4] (concentrations as high as 100 μM) is “cells continue to thrive”. In addition, in data set [4] (concentrations below 10 μM), the “growth rate in cells expressing native levels of Top2” value is “partial dose-dependent inhibition of growth rates”. In data set [5], the “growth of cells overexpressing TOP2 on agar” value was “toxic”. Besides, the “enhancement of doxorubicin cytotoxicity” value in data set [6] (10 μM Compound 1, 0.5 μM doxorubicin, 48 hrs, FIG. 6B) was “several fold”. Also, the “viability of HT1080 cells, compound alone” value in [6] (48 hrs, DMSO vehicle, FIG. 6A) is given as “no effect on the viability”. In data set [6] (48 hrs, with 0.5 μM doxorubicin, FIG. 6B), the “lowest concentration enhancing doxorubicin toxicity” value came to 2.5 µM. Further, the “enhancement of HT1080 cell killing at multiple doxorubicin concentrations” value in data set [6] (various concentrations of doxorubicin and Compound 1, FIG. 6D) is reported as “dose-dependent enhancement”. Also, the “enhancement of vinblastine toxicity” value in [6] (with 0.5 nM vinblastine, 48 hrs, FIG. 6C) is on record as “does not enhance vinblastine toxicity”. In data set [7], the “growth of cells overexpressing TOP1 on agar” value was “no effect on the growth”. The “inhibition of decatenation of kinetoplastid DNA by human Top2-α” value in data set [8] is given as “inhibits human Top2-α at Micromolar Concentrations; also recorded: inhibited by increasing concentrations”. In data set [9] (performed as in Example 6, FIG. 7), the “toxicity to MJT cells, compound alone” value is reported as “not itself toxic”. The “enhancement of doxorubicin toxicity in MJT cells” value in [9] (various concentrations of doxorubicin with and without Compound 1, FIG. 7) is “nor does it enhance the toxicity of doxorubicin”. Besides, the “growth of cells carrying an empty vector on agar” value in data set [10] is “no effect on the growth”. Moreover, in data set [1], the “formation of the linear form of pUC18 (stable double strand breaks, Top2cc adducts)” value is on record as “induced yeast Top2 to form the linear form of pUC18”. Moreover, the “growth in cells overexpressing TOP2 from a plasmid vector” value in [11] is on record as “almost completely arrests growth”. In data set [2], the “unwinding of plasmid DNA” value is recorded as “do not unwind the DNA”.
`COc1cccc2c1C(=O)c1c(O)c3c(c(O)c1C2=O)C[C@@](O)(C(=O)CO)C[C@@H]3O[C@H]1C[C@H](N)[C@H](O)[C@H](C)O1` [doxorubicin]: in [2], the “unwinding of plasmid DNA” value is “DNA is unwound”.
